Legend:
[1] = system: CYP3A4/5; test: Antibody studies: inhibition of nemorubicin metabolism by human liver microsomes; type: in vitro ADME; settings: nemorubicin 20 μM, NADPH 0.5 mM, 10 min at 37° C.
Procedure: Human liver microsomes were preincubated at 25° C. for 5 min. with and without a monoclonal antibody anti-CYP3A4/5 (MAB-3A4 Genetest) in Tris 0.3M (pH 7.4) before adding nemorubicin (20 μM and NADPH (0.5 mM). After 10 min at 37° C., the amount of nemorubicin metabolites was evaluated by a HPLC system.
(§1) High-performance liqid chromatographic (HPLC) system consisted of a Waters Model 510 isocratic pump equipped with autosampler. Detection was performed by a Perkin Elmer fluorescence spectrofotometer LS-5 set at 479 and 552 nm excitation and emission wavelength, respectively. Detector was connected to a Shimadzu C-R3A integrator. The cromatographic separation was performed on a Waters Simmetry C8 reverse phase column. The mobile phase was 10 mM KH2P4/Methanol/CH3CN (45:30:25). The flow rate was 1.5 ml/min. Standard curves of fluorescence versus drug concentration for nemorubicin and metabolites were used to calculate drug concentration in the samples.

[2] = target: T1, CYP3A4 (Homo sapiens, UniProt P08684); test: Metabolic potential of microsomes from cells expressing single human CYP 450 isoenzymes; type: in vitro ADME; settings: 50 pmol CYP/ml, nemorubicin 20 μM, NADPH 0.5 mM, 37° C., 20 min; CYP3A4, CYP3A5, CYP1A2, CYP2E1, CYP2D61, CYP2C91, CYP2C8
T1 construct: expressed in transfected cells
Procedure: Microsomes were obtained from cell cultures overexpressing CYP3A4, CYP3A5, CYP1A2, CYP2E1, CYP2D61, CYP2C91 and CYP2C8. Microsomes (50 pmol CYP/ml) were incubated with nemomubicin (20 μM) and NADPH (0.5 mM) in 0.3M Tris (pH 7.4) at 37° C. for 20 min. Nemorubicin metabolism was quantified by HPLC method.
as §1

T1 sequence (P08684 whole entry): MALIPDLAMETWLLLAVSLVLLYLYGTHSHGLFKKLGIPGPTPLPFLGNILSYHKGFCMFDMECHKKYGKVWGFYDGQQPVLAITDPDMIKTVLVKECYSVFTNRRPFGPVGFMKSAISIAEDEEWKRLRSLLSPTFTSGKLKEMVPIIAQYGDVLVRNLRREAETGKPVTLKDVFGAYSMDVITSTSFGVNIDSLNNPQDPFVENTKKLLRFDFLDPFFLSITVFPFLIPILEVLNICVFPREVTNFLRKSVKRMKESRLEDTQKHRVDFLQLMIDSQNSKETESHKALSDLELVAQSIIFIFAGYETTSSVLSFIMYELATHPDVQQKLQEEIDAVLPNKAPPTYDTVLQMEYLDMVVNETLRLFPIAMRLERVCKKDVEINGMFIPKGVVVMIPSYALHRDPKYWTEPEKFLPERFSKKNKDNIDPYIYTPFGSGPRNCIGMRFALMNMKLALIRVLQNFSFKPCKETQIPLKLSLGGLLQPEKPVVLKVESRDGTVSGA

COc1cccc2c1C(=O)c1c(O)c3c(c(O)c1C2=O)C[C@@](O)(C(=O)CO)C[C@@H]3O[C@H]1C[C@H](N2CCO[C@H](OC)C2)[C@H](O)[C@H](C)O1 [nemorubicin]
isoenzyme responsible for nemorubicin metabolism (antibody inhibition) [1]: only the CYP3A4 isoenzyme is responsible for the metabolism of nemorubicin | metabolism of nemorubicin by microsomes overexpressing single CYP isoenzymes [2]: Only microsomes from CYP3A4-overexpressing cells were able to metabolize nemorubicin
